Test results as given in patent US11873291B2, “Quinoline cGAS antagonist compounds” (ImmuneSensor Therapeutics, Inc., priority 2020, dated 2024).
Where two headings read alike, the source gives them in different places.

Experiments:
[1] = biological target: T1, recombinant human cGAS (aa147-522) (Homo sapiens, UniProt Q8N884); assay: In vitro inhibition assay of cGAS activity (ATP consumption, KinaseGlo Max); assay type: biochemical
T1 construct: recombinant human cGAS (aa147-522); His6-SUMO (cleaved yes); made in house; host or cells: E. coli BL21/pLys
T1 sequence (Q8N884 147-522): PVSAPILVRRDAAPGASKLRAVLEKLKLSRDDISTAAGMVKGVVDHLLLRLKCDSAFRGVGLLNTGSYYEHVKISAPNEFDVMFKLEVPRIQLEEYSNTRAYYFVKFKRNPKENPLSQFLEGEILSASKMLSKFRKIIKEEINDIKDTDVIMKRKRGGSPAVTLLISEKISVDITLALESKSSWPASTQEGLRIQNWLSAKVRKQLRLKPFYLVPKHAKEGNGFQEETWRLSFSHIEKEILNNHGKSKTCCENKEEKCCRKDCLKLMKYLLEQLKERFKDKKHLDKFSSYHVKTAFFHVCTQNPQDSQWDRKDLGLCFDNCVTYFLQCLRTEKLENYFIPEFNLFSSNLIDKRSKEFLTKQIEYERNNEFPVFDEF
Method in brief: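 IC50 came from plotting % ATP consumption against log compound concentration, with leftover ATP detected by KinaseGlo Max chemiluminescence. Reactions ran 20 min at 37 °C with 1.5 μg/mL human cGAS (aa147-522), 6.6 μM ATP, 0.1 mM GTP and 0.01 mg/mL DNA at pH 7.5.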

[2] = test system: cGAS activity in Reporter THP1 cell line; assay: Cellular assay to measure cGAS activity: ISRE-Gaussia luciferase reporter THP1 cells transfected with ISD; assay type: cell-based; conditions: Homo sapiens
Procedure: Cellular assay to measure cGAS activity: Reporter THP1 cell line harboring a gene encoding Gaussia Luciferase under the control of 5 tandem repeats of interferon-stimulated response elements (ISRE) fused to an ISG54 minimal promoter was used to test inhibition of cGAS activity by synthetic compounds in human cells. These cells were plated on 96-well plates at 0.3×10^6/well and incubated with serial dilutions of compounds or DMSO for 5 min, followed by transfection of 2 μg/mL of ISD (Interferon Stimulatory DNA, a 45 bp DNA oligo) or mock transfected using lipofectamine 2000 (Life Technology) method, according to manufacturer's instructions. 16 hours later, 15 μL of the media from each well was transferred to a new plate, 50 μL of solution containing 50 mM Hepes-NaOH, pH 6.5, 50 mM NaCl, 10 mM EDTA, 1 μM of coelenterazine was added to each well and luminescence was measured immediately. Fold increase in luminescence compared to mock transfection was plotted against concentrations of each compound, and IC50 is calculated using Graphpad. To evaluate the specificity of a compound, the same procedure was performed except that cells were transfected with 2 μg/mL poly(I:C) or infected with Sendai Virus (SeV) at 50 Unit/mL, which are known to activate the RIG-I-MAVS pathway. A specific inhibitory compound should inhibit interferon induction by DNA but have minimal effect on poly(I:C) or Sendai virus induced interferon reporter gene expression.
The letter codes for cGAS IC50 include: A (<2 μM); B (2-10 μM); C (>10 μM).

[3] = Table 3, read-out: cGAS Inhibition Results IC50
[4] = THP-1, Table 4, Gaussia luciferase
[5] = THP-1, untitled table after Table 4 (continuation)

SMILES | IC50 [1, 3] [nM] | IC50 [2, 4] [nM] | IC50 [2, 5] [nM] | IC50 ([1]; Table 2, read-out: cGAS Inhibition Results IC50) [nM]
O=C(O)COCC[C@@H]1CC[C@@H](C(=O)O)N1c1cc(-n2ccnc2)c2ccc(Cl)c(Cl)c2n1 [I-715, (2S,5S)-5-(2-(carboxymethoxy)ethyl)-1-(7,8-dichloro-4-(1H-imidazol-1-yl)quinolin-2-yl)pyrrolidine-2-carboxylic acid] | < 2000 | > 10000 |  | 
CC(=O)N[C@H]1CCN(c2cc(-n3ccnc3)c3ccc(Cl)c(Cl)c3n2)C1 [I-764, (S)—N-(1-(7,8-dichloro-4-(1H-imidazol-1-yl)quinolin-2-yl)pyrrolidin-3-yl)acetamide] | < 2000 |  | > 10000 | 
COC(=O)[C@@H]1CC2(CC2)CN1c1cc(-n2ccnc2)c2ccc(Cl)c(Cl)c2n1 [I-582] | < 2000 | < 2000 |  | 
O=C(O)CCOCC1CC2CCC1N2c1cc(-n2ccnc2)c2ccc(Cl)c(Cl)c2n1 (stereo not shown) [I-807] | < 2000 |  | < 2000 | 
C[C@H]1C[C@@H](COCCC(=O)O)N(c2cc(-n3ccnc3)c3ccc(Cl)c(Cl)c3n2)C1 [I-708] | < 2000 | < 2000 |  | 
O=C(O)Cc1cc(F)cc(CNc2cc(-n3ccnc3)c3ccc(Cl)c(Cl)c3n2)c1 [I-891, 2-(3-(((7,8-dichloro-4-(1H-imidazol-1-yl)quinolin-2-yl)amino)methyl)-5-fluorophenyl)acetic acid] | < 2000 |  | < 2000 | 
COc1cc(Cl)c2nc(N3CCC[C@H]3COCCC(=O)O)cc(-n3ccnc3)c2c1 [I-875] | < 2000 |  | < 2000 | 
O=C(O)CCCC1CCCN(c2cc(-n3ccnc3)c3ccc(Cl)c(Cl)c3n2)C1 (stereo not shown) [I-739] | < 2000 | < 2000 |  | 
O=C(O)[C@@H]1CC2(CC2)CN1c1cc(-n2ccnc2)c2ccc(Cl)c(Cl)c2n1 [I-478] | < 2000 | 2000 to 10000 |  | 
COC(=O)[C@@H]1[C@H](O)CCN1c1cc(-n2ccnc2)c2ccc(Cl)c(Cl)c2n1 [I-597] | 2000 to 30000 | > 10000 |  | 
O=C(OC(C(F)(F)F)C(F)(F)F)[C@@H]1[C@@H](O)CCN1c1cc(-n2ccnc2)c2ccc(Cl)c(Cl)c2n1 [I-663] | < 2000 | < 2000 |  | 
O=C(O)CCOC[C@H](O)[C@@H]1CCCN1c1cc(-n2ccnc2)c2ccc(Cl)c(Cl)c2n1 [I-724, 3-((R)-2-((S)-1-(7,8-dichloro-4-(1H-imidazol-1-yl)quinolin-2-yl)pyrrolidin-2-yl)-2-hydroxyethoxy)propanoic acid] | < 2000 | 2000 to 10000 |  | 
CN(CCCOc1ccccc1C(=O)O)c1cc(-n2ccnc2)c2ccc(Cl)c(Cl)c2n1 [I-846] | < 2000 |  | < 2000 | 
O=C(O)[C@@H]1[C@H](O)CCN1c1cc(-n2ccnc2)c2ccc(Cl)c(Cl)c2n1 [I-429] |  | > 10000 |  | < 2000
O=C(O)[C@@H]1[C@H](CO)CCN1c1cc(-n2ccnc2)c2ccc(Cl)c(Cl)c2n1 (racemic) [I-782, 1-(7,8-dichloro-4-(1H-imidazol-1-yl)quinolin-2-yl)-3-(hydroxymethyl)pyrrolidine-2-carboxylic acid] | < 2000 |  | > 10000 | 
O=C(O)c1ccn(C[C@@H]2CCCN2c2cc(-n3ccnc3)c3ccc(Cl)c(Cl)c3n2)c1 [I-732] | < 2000 | < 2000 |  | 
CN(CCOCCC(=O)O)c1cc(-n2ccnc2)c2ccc(Cl)c(Cl)c2n1 [I-694] | < 2000 | < 2000 |  | 
O=C(O)CCOC[C@@H]1CCCN1c1cc(-c2cn[nH]c2)c2cc(Cl)cc(Cl)c2n1 [I-853] | < 2000 |  | < 2000 | 
O=C(O)CCOC[C@H]1CC2CCC1N2c1cc(-n2ccnc2)c2ccc(Cl)c(Cl)c2n1 (stereo partly shown) [I-811] | < 2000 |  | < 2000 | 
O=C(O)CCNC(=O)[C@@H]1[C@@H](O)CCN1c1cc(-n2ccnc2)c2ccc(Cl)c(Cl)c2n1 [I-784, 3-((2S,3S)-1-(7,8-dichloro-4-(1H-imidazol-1-yl)quinolin-2-yl)-3-hydroxypyrrolidine-2-carboxamido)propanoic acid] | < 2000 |  | > 10000 | 
CO[C@@H]1C[C@@H](COCCC(=O)O)N(c2cc(-n3ccnc3)c3ccc(Cl)c(Cl)c3n2)C1 [I-711] | < 2000 | < 2000 |  | 
C[C@H]1[C@@H](C(=O)O)N(c2cc(-n3ccnc3)c3ccc(Cl)c(Cl)c3n2)C[C@@H]1O [I-780] | 2000 to 30000 |  | > 10000 | 
O=C1OCC2CCN(c3cc(-n4ccnc4)c4ccc(Cl)c(Cl)c4n3)C12 (stereo not shown) [I-775, 1-(7,8-dichloro-4-(1H-imidazol-1-yl)quinolin-2-yl)hexahydro-6H-furo[3,4-b]pyrrol-6-one] | < 2000 |  | 2000 to 10000 | 
O=C(O)c1ccccc1OC[C@@H]1CCCN1c1cc(-n2ccnc2)c2ccc(Cl)c(Cl)c2n1 [I-733] | < 2000 | < 2000 |  | 
O=C(O)C1CC(OC[C@@H]2CCCN2c2cc(-n3ccnc3)c3ccc(Cl)c(Cl)c3n2)C1 (stereo partly shown) [I-723] | < 2000 | 2000 to 10000 |  | 

SMILES | IC50 [1, 3] [nM] | IC50 [2, 4] [nM] | IC50 [2, 5] [nM] | IC50 ([1]; Table 2, read-out: cGAS Inhibition Results IC50) [nM]
COC(=O)CCOCC[C@@H]1CCCN1c1cc(-n2ccnc2)c2ccc(Cl)c(Cl)c2n1 [I-673] | 2000 to 30000 | < 2000 |  | 
O=C(O)CCOCC1COCCN(c2cc(-n3ccnc3)c3ccc(Cl)c(Cl)c3n2)C1 (stereo not shown) [I-868] | < 2000 |  | 2000 to 10000 | 
O=C(O)CCCC[C@@H]1CCCN1c1cc(-n2ccnc2)c2ccc(Cl)c(Cl)c2n1 [I-683] | < 2000 | < 2000 |  | 
COc1ccc2c(-n3ccnc3)cc(N3CCC[C@H]3COCCC(=O)O)nc2c1Cl [I-856] | < 2000 |  | 2000 to 10000 | 
O=C(O)/C=C/C[C@@H]1CCCN1c1cc(-n2ccnc2)c2ccc(Cl)c(Cl)c2n1 [I-685] | < 2000 | < 2000 |  | 
CC(CC(=O)O)OC[C@@H]1CCCN1c1cc(-n2ccnc2)c2ccc(Cl)c(Cl)c2n1 (stereo partly shown) [I-717] | < 2000 | < 2000 |  | 
O=C(O)CCOCCC[C@@H]1CCCN1c1cc(-n2ccnc2)c2ccc(Cl)c(Cl)c2n1 [I-677] | < 2000 | < 2000 |  | 
CCOC(=O)[C@@H]1CCCN1c1cc(-n2ccnc2)c2ccc(Cl)c(Cl)c2n1 [I-594] | 2000 to 30000 | 2000 to 10000 |  | 
COC(=O)[C@@H]1[C@@H](O)CCN1c1cc(-n2ccnc2)c2ccc(Cl)c(Cl)c2n1 [I-596] | 2000 to 30000 | < 2000 |  | 
O=C(O)Cc1cccc(OC[C@@H]2CCCN2c2cc(-n3ccnc3)c3ccc(Cl)c(Cl)c3n2)c1 [I-736] | < 2000 | < 2000 |  | 
NC(=O)CNC(=O)C[C@@H]1CCCN1c1cc(-n2ccnc2)c2ccc(Cl)c(Cl)c2n1 [I-539] | < 2000 | 2000 to 10000 |  | 
COC(=O)[C@@H]1C[C@H]2C[C@H]2N1c1cc(-n2ccnc2)c2ccc(Cl)c(Cl)c2n1 [I-591] | 2000 to 30000 | 2000 to 10000 |  | 
O=C(O)CCOC[C@@H]1Cc2ccccc2N1c1cc(-n2ccnc2)c2ccc(Cl)c(Cl)c2n1 [I-806] | < 2000 |  | 2000 to 10000 | 
O=C(O)CCOCc1cc(Cl)cc(-c2cc(-n3ccnc3)c3ccc(Cl)c(Cl)c3n2)c1 [I-879] | < 2000 |  | < 2000 | 
O=C(O)CCOC[C@@H]1CCCN1c1cc(-n2ccnc2)c2ccc(Cl)c(Br)c2n1 [I-862] | < 2000 |  | < 2000 | 
COC(=O)[C@@H]1C[C@@H](F)CN1c1cc(-n2ccnc2)c2ccc(Cl)c(Cl)c2n1 [I-592] | 2000 to 30000 | 2000 to 10000 |  | 
O=C(O)c1cccc(CNc2cc(-n3ccnc3)c3ccc(Cl)c(Cl)c3n2)c1 [I-887] | < 2000 |  | 2000 to 10000 | 
O=C(O)CCCCCNc1cc(-c2cn[nH]c2)c2ccc(Cl)c(Cl)c2n1 [I-830] | < 2000 |  | < 2000 | 
OCCCOCC[C@@H]1CCCN1c1cc(-n2ccnc2)c2ccc(Cl)c(Cl)c2n1 [I-678] | < 2000 | 2000 to 10000 |  | 
O=C(O)CCO[C@@H]([C@@H]1CCCN1c1cc(-n2ccnc2)c2ccc(Cl)c(Cl)c2n1)C(F)(F)F [I-722] | < 2000 | 2000 to 10000 |  | 
COC(=O)CCNC[C@@H]1CCCN1c1cc(-n2ccnc2)c2ccc(Cl)c(Cl)c2n1 [I-753, methyl (S)-3-(((1-(7,8-dichloro-4-(1H-imidazol-1-yl)quinolin-2-yl)pyrrolidin-2-yl)methyl)amino)propanoate] | > 30000 | > 10000 |  | 
C[C@@H]1C[C@@H](COCCC(=O)O)N(c2cc(-n3ccnc3)c3ccc(Cl)c(Cl)c3n2)C1 [I-795] | < 2000 |  | < 2000 | 
O=C(O)CCCCCCNc1cc(-n2ccnc2)c2ccc(Cl)c(Cl)c2n1 [I-831] | < 2000 |  | 2000 to 10000 | 
O=C(O)CCOCC1CN(c2cc(-n3ccnc3)c3ccc(Cl)c(Cl)c3n2)CCCO1 (stereo not shown) [I-867] | < 2000 |  | < 2000 | 
CCCCOC(=O)[C@@H]1[C@@H](O)CCN1c1cc(-n2ccnc2)c2ccc(Cl)c(Cl)c2n1 [I-601] | 2000 to 30000 | < 2000 |  | 
